Like-named read-outs stand apart in the source and are kept apart here.

The target of test [1] is T1, hGSTM1-1 (Homo sapiens, UniProt P09488).
T1 sequence (P09488 1-218): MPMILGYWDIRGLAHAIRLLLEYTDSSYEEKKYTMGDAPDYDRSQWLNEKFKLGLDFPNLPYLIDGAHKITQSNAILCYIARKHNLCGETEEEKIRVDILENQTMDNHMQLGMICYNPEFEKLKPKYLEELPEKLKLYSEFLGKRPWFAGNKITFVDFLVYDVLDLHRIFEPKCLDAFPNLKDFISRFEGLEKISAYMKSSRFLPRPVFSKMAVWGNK
In words: biochemical. More on the design: made in house; host or cells: E. coli. On the procedure: (§1) Reduced GST assays were performed by monitoring the formation of the conjugate of CDNB (1 mM) with GSH (2.5 mM) at 340 nm (ε = 9.6 mM^−1cm^−1) for 120 s according to a published method. One unit of enzyme activity is defined as the amount of enzyme that produces 1 μmol of product per minute under the assay conditions.
Pesticide screening and inhibition potency evaluation towards hGSTM1-1 were carried out in the assay system described above in the presence of 25 μM pesticide diluted in acetone. During the assay, no measurable pesticide/GSH reaction was detected. The percentage of enzyme inhibition (I) was calculated using the following equation:%I = [(Ro − Ri)/Ro] × 100(3) where Ro is the unit of enzyme activity increase for the uninhibited reaction and Ri is the rate of increase for the inhibited reaction. Both Ri and Ro correspond to the same substrate concentration.

For test [2], the target named is T1, hGSTM1-1. In words: IC50 determination, concentration-response in CDNB-GSH assay. The class given is biochemical. The arrangement: made in house; host or cells: E. coli. As to conditions: 37 °C, pH 6.5; CDNB-GSH assay; read-out: IC50. On the procedure:
as §1
[…]. The IC50 values were determined using the program GraphPad Prism (GraphPad Software Inc., Version 7, San Diego, CA, USA).

The target in test [3] is T1, hGSTM1-1. The experiment in a line: biochemical. As to conditions: pH 7.4. The source says:
Furthermore, the catalytic activity of hGSTM1-1 cannot be regained by extensive dialysis or gel filtration on Sephadex G-25. […] The Kapp calculated by inactivation experiments is in good agreement to that determined by kinetic inhibition analysis.
The rate of inactivation was followed by periodically removing samples for assays of enzymatic activity.

Setting [4] is: 25 μM pesticide, CDNB (1 mM)-GSH (2.5 mM) assay, mean of three assays, variation less than 5%, read-out: Inhibition (%).
Setting [5] is: 25 μM pesticide, CDNB (1 mM)-GSH (2.5 mM) assay, mean of three assays, variation less than 5%.

Regarding `CN(C)C(=O)Nc1ccc(Cl)c(Cl)c1` [Diuron], the inhibition (commonly how much of the control response was suppressed) at 25 µM at hGSTM1-1 [1] (setting [4]) amounted to 15%. As to `O=C(NC(=O)c1c(F)cccc1F)Nc1ccc(Cl)cc1` [Diflubenzuron], the inhibition at 25 µM at hGSTM1-1 [1] (setting [4]) is 0%. Regarding `CCNc1nc(Cl)nc(NC(C)C)n1` [Atrazine], the inhibition at 25 µM at hGSTM1-1 [1] (setting [4]) came out at 28.7%. On to `CCOC(=O)Nc1cccc(OC(=O)Nc2ccccc2)c1` [Desmedipham], for which the inhibition at 25 µM at hGSTM1-1 [1] (setting [4]) is 0%.

Turning to `CC1(C)[C@H](C(=O)O[C@H](C#N)c2cccc(Oc3ccccc3)c2)[C@@H]1/C=C(\Cl)C(F)(F)F` (racemic) [Lambda-Cyhalothrin], at hGSTM1-1 [1] (setting [4]), the inhibition at 25 µM is 0%. For `CSC1=N[C@@](C)(c2ccccc2)C(=O)N1Nc1ccccc1` [Fenamidone], the inhibition at 25 µM on hGSTM1-1 [1] (setting [4]) was determined as 0%. On the same count and under the same terms, the figure for `C=CC1(C)OC(=O)N(c2cc(Cl)cc(Cl)c2)C1=O` (centres unmarked) [Vinclozolin] is 14.3%; for `CC1(C)[C@H](C(=O)O[C@H](C#N)c2cccc(Oc3ccccc3)c2)[C@@H]1C=C(Br)Br` [Deltamethrin] it is 0%. On to `O=[N+]([O-])c1ccc(Oc2ccc(C(F)(F)F)cc2[N+](=O)[O-])cc1` [Fluorodifen], for which the inhibition at 25 µM at hGSTM1-1 [1] (setting [4]) was determined as 16.7%.

For the compound `CC(C)NC(=O)N1CC(=O)N(c2cc(Cl)cc(Cl)c2)C1=O` [Iprodione], the inhibition at 25 µM on hGSTM1-1 [1] (setting [4]) stood at 19.5%. Same read-out and setting: to `CC1(C)C(C=C(Cl)Cl)C1C(=O)OCc1cccc(Oc2ccccc2)c1` (centres unmarked) [Permethrin] belongs 11.2%; to `COC(=O)Nc1cccc(OC(=O)Nc2cccc(C)c2)c1` [Phenmedipham], 16%.

In the case of `CCNc1nc(Cl)nc(NC(C)(C)C)n1` [Terbuthylazine], on hGSTM1-1 [1] (setting [4]), the inhibition at 25 µM amounted to 12%.

Take `CCc1cccc(C)c1N(C(=O)CCl)C(C)COC` (centres unmarked) [Metolachlor]: the inhibition at 25 µM on hGSTM1-1 [1] (setting [4]) was 9.2%. For `CCOC(=O)OC1=C(c2cc(C)ccc2C)C(=O)N[C@]12CC[C@@H](OC)CC2` [Spirotetramat], the inhibition at 25 µM on hGSTM1-1 [1] (setting [4]) came out at 29.3%. For `CNC(=O)Oc1cccc2ccccc12` [Carbaryl], on hGSTM1-1 [1], testing at 25 µM gave an inhibition of 0%. Consider `CNC(=O)CSP(=O)(OC)OC` [Omethoate], for which the inhibition at 25 µM on hGSTM1-1 [1] was 3.21%. Turning to `CNC(=O)ON=C(C)SC` [Methomyl], the inhibition at 25 µM at hGSTM1-1 [1] (setting [4]) was determined as 20%. On the same count and under the same terms, to `O=C(NC(=O)c1c(F)cccc1F)Nc1cc(Cl)c(F)c(Cl)c1F` [Teflubenzuron] belongs 11.2%; to `O=C(Nc1ccccc1-c1ccc(Cl)cc1)c1cccnc1Cl` [Boscalid], 20.4%. Take `CC(C)(C)C(O)C(Oc1ccc(Cl)cc1)n1cncn1` (centres unmarked) [Triadimenol]: at hGSTM1-1 [1] (setting [4]), the inhibition at 25 µM was 0%.

In the case of `O=[N+]([O-])NC1=NCCN1Cc1ccc(Cl)nc1` [Imidacloprid], on hGSTM1-1 [1] (setting [4]), the inhibition at 25 µM stood at 0%. Consider `O=S1OC[C@@H]2[C@H](CO1)[C@@]1(Cl)C(Cl)=C(Cl)[C@]2(Cl)C1(Cl)Cl` (stereo partly drawn) [alpha Endosulfan], for which the “Inhibition (%)” value on hGSTM1-1 [1] (setting [5]) was 16.66%. `CCOC(=O)CC(SP(=S)(OC)OC)C(=O)OCC` (centres unmarked) [Malathion, malathion]: at hGSTM1-1 [1] (setting [4]), the inhibition at 25 µM worked out at 12.7%. For `Cc1cccc(C)c1N(Cn1cccn1)C(=O)CCl` [Metazachlor, metazachlor], the inhibition at 25 µM at hGSTM1-1 [1] (setting [4]) was 19.7%. As for `COP(=S)(OC)Oc1c(Cl)cc(C)cc1Cl` [Tolclofos-methyl], the inhibition at 25 µM against hGSTM1-1 [1] worked out at 9.32%.

Consider `C#CCOc1ccc(CCNC(=O)C(OCC#C)c2ccc(Cl)cc2)cc1OC` (centres unmarked) [Mandipropamid], for which the “Inhibition (%)” value at hGSTM1-1 [1] (setting [5]) came to 21.47%. As for `CC(C)N(C(=O)CCl)c1ccccc1` [Propachlor, propachlor], the inhibition at 25 µM on hGSTM1-1 [1] (setting [4]) amounted to 11.2%. As to `CO/N=C(/C(=O)OC)c1ccccc1COc1ccccc1C` [Kresoxim-methyl], the inhibition at 25 µM at hGSTM1-1 [1] (setting [4]) was determined as 14.5%. As to `CO/N=C(/C1=NOCCO1)c1ccccc1Oc1ncnc(Oc2ccccc2Cl)c1F` [Fluoxastrobin], the inhibition at 25 µM on hGSTM1-1 [1] (setting [4]) came to 18.5%. On to `CCO[PH](=O)O` [Fosetyl-Al], for which, on hGSTM1-1 [1] (setting [5]), the “Inhibition (%)” value was determined as 0.66%. Take `CON=C(C(=O)OC)c1ccccc1CON=C(C)c1cccc(C(F)(F)F)c1` [Trifloxystrobin]: on hGSTM1-1 [1] (setting [4]), the inhibition at 25 µM was found to be 2.88%. As to Imidachlor, the “Inhibition (%)” value on hGSTM1-1 [1] (setting [5]) stood at 10.14%. For `O=C(NC(=O)c1ccccc1Cl)Nc1ccc(OC(F)(F)F)cc1` [Triflumuron], at hGSTM1-1 [1] (setting [4]), the inhibition at 25 µM was found to be 22.7%. On the same count and under the same terms, the figure for `CCOP(=S)(OCC)Oc1nc(Cl)c(Cl)cc1Cl` [Chlorpyrifos] is 0%. Turning to `CC1(C(=O)Nc2ccc(O)c(Cl)c2Cl)CCCCC1` [Fenhexamid, fenhexamid], at hGSTM1-1 [1] (setting [4]), the inhibition at 25 µM stood at 35.3%. At hGSTM1-1 [2], the concentration for half-maximal inhibition (IC50) (in general, the concentration at which inhibition is half-maximal) stood at 278 ± 14.5 µM. For the compound `CNC(=O)Oc1cccc2c1OC(C)(C)C2` [Carbofuran], the inhibition at 25 µM at hGSTM1-1 [1] (setting [4]) came to 0%. `CCC(C)(C)C(=O)OC1=C(c2ccc(Cl)cc2Cl)C(=O)OC12CCCCC2` [Spirodiclofen]: the “Inhibition (%)” value on hGSTM1-1 [1] (setting [5]) was 10.20%. The same measure, in the same setting: to `COP(=O)(OC)OC=C(Cl)Cl` [Dichloros] belongs 1.48%. In the case of `Cc1cc(C)c(C2=C(OC(=O)CC(C)(C)C)C3(CCCC3)OC2=O)c(C)c1` [Spiromesifen], the “Inhibition (%)” value at hGSTM1-1 [1] (setting [5]) was found to be 1.27%. Still for that read-out and setting: the figure for Spinosad is 0%. Take `OC(Cc1ccccc1Cl)(Cn1nc[nH]c1=S)C1(Cl)CC1` (centres unmarked) [Prothioconazole]: the inhibition at 25 µM at hGSTM1-1 [1] (setting [4]) was determined as 26.5%. In the case of `Cc1cc(C)nc(Nc2ccccc2)n1` [Pyrimethanil], the inhibition at 25 µM on hGSTM1-1 [1] (setting [4]) stood at 7.49%. For `COC(=O)Nc1nc2ccccc2[nH]1` [Carbedazim], the “Inhibition (%)” value at hGSTM1-1 [1] (setting [5]) turned out to be 8.00%. As for `CCc1cccc(CC)c1N(COC)C(=O)CCl` [Alachlor, alachlor], on hGSTM1-1 [1] (setting [4]), the inhibition at 25 µM came to 32%.

For `N[C@@H](CCC(=O)N[C@@H](CSCc1ccc([N+](=O)[O-])cc1)C(=O)NCC(=O)O)C(=O)O` [S-nitrobenzyl-GSH, S-nitrobenzyl-glutathione], the “Effect on inactivation of hGSTM1-1 by GS-ESF” value on hGSTM1-1 [3] was “diminish the observed rate of enzyme inactivation”.

Regarding `Cl[C@H]1[C@H](Cl)[C@@H](Cl)[C@@H](Cl)[C@H](Cl)[C@H]1Cl` [Lindane], at hGSTM1-1 [1] (setting [4]), the inhibition at 25 µM was 13%.

Consider `COCC(=O)N(c1c(C)cccc1C)C(C)C(=O)OC` (centres unmarked) [Metalaxyl], for which the inhibition at 25 µM on hGSTM1-1 [1] (setting [4]) worked out at 19.8%.

On hGSTM1-1 [1], `CN/C(=N\[N+](=O)[O-])NCc1cnc(Cl)s1` [Clothianidin] displayed an inhibition at 25 µM of 0%. Consider `O=S1OCC2C(CO1)C1(Cl)C(Cl)=C(Cl)C2(Cl)C1(Cl)Cl` (centres unmarked) [Endosulfan], for which the inhibition at 25 µM on hGSTM1-1 [1] (setting [4]) is 14.7%. As for `CO/C=C(/C(=O)OC)c1ccccc1COc1cccc(C(F)(F)F)n1` [Picoxystrobin], the “Inhibition (%)” value on hGSTM1-1 [1] (setting [5]) is on record as 10.56%.

The compound `N#C/N=C1\SCCN1Cc1ccc(Cl)nc1` [Thiacloprid] gave an inhibition at 25 µM at hGSTM1-1 [1] of 10.7%.

In the case of `CCC(C)(NC(=O)c1cc(Cl)c(C)c(Cl)c1)C(=O)CCl` (centres unmarked) [Zoxamide], the inhibition at 25 µM at hGSTM1-1 [1] (setting [4]) turned out to be 20%.

Regarding `CC1(C)C(C=C(Cl)Cl)C1C(=O)OC(C#N)c1cccc(Oc2ccccc2)c1` (stereo not drawn) [Alpha cypermethrin], the inhibition at 25 µM on hGSTM1-1 [1] (setting [4]) turned out to be 0%. Consider `CCCCOCN(C(=O)CCl)c1c(CC)cccc1CC` [Butachlor, butachlor], for which the inhibition at 25 µM on hGSTM1-1 [1] (setting [4]) is 35.3%. The IC50 at hGSTM1-1 [2] worked out at 236 ± 4.5 µM. With `CCOCN(C(=O)CCl)c1c(C)cccc1CC` [Acetochlor, acetochlor], the inhibition at 25 µM at hGSTM1-1 [1] (setting [4]) was found to be 13.8%. With `CC(C)C(C(=O)OC(C#N)c1cccc(Oc2ccccc2)c1)c1ccc(Cl)cc1` (centres unmarked) [Fenvalerate], the inhibition at 25 µM at hGSTM1-1 [1] (setting [4]) amounted to 0%.

The values are drawn from paper PMC8998827, “Ligandability Assessment of Human Glutathione Transferase M1-1 Using Pesticides as Chemical Probes” (International Journal of Molecular Sciences, 2022).
